Source: patent US5424456A, “N-arylalkylderivatives of 2-aminomethyl-2,3-dihydro-1,4-benzodioxine and the process of preparation thereof” (Vyzkumny Ustav Pro Farmacii A Biochemii s.p., priority 1991, dated 1995)

How the values were obtained:
calcium channel = target: T1, calcium channel (Rattus norvegicus, UniProt P22002); assay: Calcium channel blocking activity, K+ depolarization-induced contraction of helically cut rat aortic strip; settings: Krebs-Henselheit solution, 37° C., cumulative doses, read-out: IC50 (50% decrease of contraction of the aortic strip)
T1 construct: helically cut rat aortic strip; from tissue; host or cells: rat aorta (helically cut strip)
Description: The calcium channel blocking activity of the compounds was tested using a helically cut rat aortic strip in Krebs-Henselheit solution at 37° C., bubbled with a mixture of 95% O2 and 5% CO2. The isometrically registered contractions were induced by K^(+). depolarization. The test compounds were applied in a cumulative doses and the vasodilating activity thereof was expressed in calculated concentration of the test compound, causing 50% decrease of contraction of the aortic strip (IC50).

blood pressure = assay: Hypotensive activity, pentobarbital anaesthesized dogs; format: in vivo, dog; settings: i.v.
Text: b) The blood pressure of pentobarbital anaesthesized dogs was registered invasively in arteria femoralis. The average decrease in systolic (SBP) arid diastolic (DBP) blood pressure expressed in per cents of the starting blood pressure level after intravenous and oral administration is shown in Tables 5 and 6.

[1] = test system: rat peripheral venous thrombosis; assay: Antithrombotic activity, rat peripheral venous thrombosis in closed abdominal part of vena cava; format: in vivo; settings: po, rats, orally, read-out: statistically significant effective dose (mass of thrombi)
Description: The antithrombotic activity of the test compounds was established using the model of rat peripheral venous thrombosis in a closed abdominal part of vena cava. The thrombus was induced by intravenous administration of hypotonic solution of sodium chloride. The thrombus was freed 10 minutes after induction and weighted. The mass of thrombi in control animals was compared to the mass of thrombi of animals administered by the test compound. The statistically significant effective dose for compound VUFB 17951 was 0.5 mg/kg intravenously and 5 mg/kg orally and for the compound VUFB 17959 0.25 mg/kg and 1.0 mg/kg, respectively. The corresponding dose of a standard (Cilostazol, generic name, Merck index, 11th Edition, 2277) was 25 mg/kg orally.

[2] = 4.5 mg/kg, value 1 of 5 (heads 5/30/60/180 min; probably 1 min)
[3] = 4.5 mg/kg, value 2 of 5 (heads 5/30/60/180 min; probably 5 min)
[4] = 4.5 mg/kg, value 3 of 5 (heads 5/30/60/180 min; probably 30 min)
[5] = 4.5 mg/kg, value 4 of 5 (heads 5/30/60/180 min; probably 60 min)
[6] = 4.5 mg/kg, value 5 of 5 (heads 5/30/60/180 min; probably 180 min)
[7] = 4.6 mg/kg, value 1 of 5 (heads 5/30/60/180 min; probably 1 min)
[8] = 4.6 mg/kg, value 2 of 5 (heads 5/30/60/180 min; probably 5 min)
[9] = 4.6 mg/kg, value 3 of 5 (heads 5/30/60/180 min; probably 30 min)
[10] = 4.6 mg/kg, value 4 of 5 (heads 5/30/60/180 min; probably 60 min)
[11] = 4.6 mg/kg, value 5 of 5 (heads 5/30/60/180 min; probably 180 min)

T1 sequence (P22002 whole entry): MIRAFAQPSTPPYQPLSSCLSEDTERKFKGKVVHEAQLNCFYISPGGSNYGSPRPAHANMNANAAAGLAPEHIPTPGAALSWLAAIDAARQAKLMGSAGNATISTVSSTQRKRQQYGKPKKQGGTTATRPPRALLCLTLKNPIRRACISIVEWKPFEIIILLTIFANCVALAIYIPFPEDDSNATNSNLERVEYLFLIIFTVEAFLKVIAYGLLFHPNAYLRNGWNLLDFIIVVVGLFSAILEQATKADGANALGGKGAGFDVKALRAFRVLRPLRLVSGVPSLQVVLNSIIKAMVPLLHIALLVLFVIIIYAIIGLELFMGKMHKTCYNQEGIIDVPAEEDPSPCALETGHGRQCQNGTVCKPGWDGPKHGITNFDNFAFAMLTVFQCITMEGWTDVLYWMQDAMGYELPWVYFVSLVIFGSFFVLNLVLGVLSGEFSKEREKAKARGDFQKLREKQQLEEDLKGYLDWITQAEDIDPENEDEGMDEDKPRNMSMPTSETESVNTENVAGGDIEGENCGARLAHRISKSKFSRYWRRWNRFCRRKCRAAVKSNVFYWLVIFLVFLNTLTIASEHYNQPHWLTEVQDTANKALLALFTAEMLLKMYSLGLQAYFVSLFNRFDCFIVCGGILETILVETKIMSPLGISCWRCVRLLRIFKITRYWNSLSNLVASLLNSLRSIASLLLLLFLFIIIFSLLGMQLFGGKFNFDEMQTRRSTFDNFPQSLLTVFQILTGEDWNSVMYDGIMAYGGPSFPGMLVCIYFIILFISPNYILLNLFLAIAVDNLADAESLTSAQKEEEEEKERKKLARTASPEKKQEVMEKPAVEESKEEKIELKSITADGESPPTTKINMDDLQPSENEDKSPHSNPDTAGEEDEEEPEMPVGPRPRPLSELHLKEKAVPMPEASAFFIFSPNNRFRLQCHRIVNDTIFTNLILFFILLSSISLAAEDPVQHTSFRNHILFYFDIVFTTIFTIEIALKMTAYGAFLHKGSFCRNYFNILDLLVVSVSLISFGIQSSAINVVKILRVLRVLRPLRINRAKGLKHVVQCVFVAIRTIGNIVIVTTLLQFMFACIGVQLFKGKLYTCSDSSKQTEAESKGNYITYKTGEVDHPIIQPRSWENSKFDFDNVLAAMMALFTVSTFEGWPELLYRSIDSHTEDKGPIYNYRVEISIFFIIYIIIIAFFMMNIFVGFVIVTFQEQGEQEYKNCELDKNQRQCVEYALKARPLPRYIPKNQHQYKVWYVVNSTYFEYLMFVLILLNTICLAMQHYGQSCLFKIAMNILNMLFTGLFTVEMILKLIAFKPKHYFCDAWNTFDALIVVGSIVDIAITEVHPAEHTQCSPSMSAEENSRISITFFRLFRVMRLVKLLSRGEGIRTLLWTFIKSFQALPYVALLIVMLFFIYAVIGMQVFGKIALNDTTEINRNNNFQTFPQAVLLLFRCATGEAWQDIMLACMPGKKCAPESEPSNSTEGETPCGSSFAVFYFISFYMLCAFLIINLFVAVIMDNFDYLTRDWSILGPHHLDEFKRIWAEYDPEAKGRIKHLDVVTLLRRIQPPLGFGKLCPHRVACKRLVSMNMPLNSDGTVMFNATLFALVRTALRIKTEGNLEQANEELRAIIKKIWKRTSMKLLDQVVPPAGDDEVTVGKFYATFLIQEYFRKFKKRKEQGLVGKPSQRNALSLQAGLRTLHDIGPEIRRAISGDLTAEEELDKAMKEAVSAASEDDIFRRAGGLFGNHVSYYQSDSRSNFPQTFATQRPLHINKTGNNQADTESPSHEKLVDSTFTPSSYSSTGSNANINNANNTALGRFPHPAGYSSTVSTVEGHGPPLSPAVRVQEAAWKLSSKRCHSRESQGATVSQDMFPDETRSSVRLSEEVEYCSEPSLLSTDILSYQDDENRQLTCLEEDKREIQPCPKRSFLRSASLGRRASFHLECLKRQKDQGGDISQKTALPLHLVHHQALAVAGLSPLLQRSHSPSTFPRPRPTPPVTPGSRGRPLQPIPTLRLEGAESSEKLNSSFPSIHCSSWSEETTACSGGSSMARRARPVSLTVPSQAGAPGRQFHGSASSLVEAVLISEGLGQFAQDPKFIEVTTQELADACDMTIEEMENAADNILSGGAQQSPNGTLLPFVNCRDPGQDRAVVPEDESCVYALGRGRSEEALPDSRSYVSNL
T1 sequence (P54290 25-1091 partner): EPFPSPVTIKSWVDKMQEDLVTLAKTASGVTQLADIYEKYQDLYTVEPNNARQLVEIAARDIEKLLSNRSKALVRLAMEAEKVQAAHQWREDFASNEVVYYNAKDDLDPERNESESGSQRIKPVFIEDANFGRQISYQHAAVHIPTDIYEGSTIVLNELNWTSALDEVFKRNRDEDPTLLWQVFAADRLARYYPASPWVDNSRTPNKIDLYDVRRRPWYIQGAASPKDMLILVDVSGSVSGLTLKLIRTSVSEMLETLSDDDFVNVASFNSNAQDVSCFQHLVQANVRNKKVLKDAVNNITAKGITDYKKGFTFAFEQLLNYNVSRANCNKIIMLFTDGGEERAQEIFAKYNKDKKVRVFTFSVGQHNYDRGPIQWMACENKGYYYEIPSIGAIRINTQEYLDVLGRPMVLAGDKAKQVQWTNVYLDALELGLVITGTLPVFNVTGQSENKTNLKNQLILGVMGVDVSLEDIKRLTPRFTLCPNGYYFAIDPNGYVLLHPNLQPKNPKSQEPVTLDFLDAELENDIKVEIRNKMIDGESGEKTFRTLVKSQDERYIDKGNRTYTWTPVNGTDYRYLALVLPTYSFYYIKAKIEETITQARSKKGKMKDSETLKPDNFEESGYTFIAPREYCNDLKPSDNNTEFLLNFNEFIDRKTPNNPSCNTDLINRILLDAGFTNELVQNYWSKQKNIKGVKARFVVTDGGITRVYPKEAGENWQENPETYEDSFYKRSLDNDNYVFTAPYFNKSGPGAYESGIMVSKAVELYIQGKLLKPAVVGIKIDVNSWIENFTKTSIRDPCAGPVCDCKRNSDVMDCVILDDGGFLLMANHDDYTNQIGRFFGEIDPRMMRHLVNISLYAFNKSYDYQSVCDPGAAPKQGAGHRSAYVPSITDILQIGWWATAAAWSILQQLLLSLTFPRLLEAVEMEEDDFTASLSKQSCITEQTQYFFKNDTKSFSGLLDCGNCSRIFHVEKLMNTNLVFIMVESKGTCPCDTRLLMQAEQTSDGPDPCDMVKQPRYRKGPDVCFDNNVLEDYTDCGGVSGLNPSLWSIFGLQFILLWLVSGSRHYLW

Compound | IC50 (calcium channel) [µM] | decrease in diastolic blood pressure (DBP) (blood pressure; [2]) [per cents] | decrease in systolic blood pressure (SBP) (blood pressure; [2]) [per cents] | decrease in diastolic blood pressure (DBP) (blood pressure; [3]) [per cents] | decrease in systolic blood pressure (SBP) (blood pressure; [3]) [per cents] | decrease in diastolic blood pressure (DBP) (blood pressure; [4]) [per cents] | decrease in systolic blood pressure (SBP) (blood pressure; [4]) [per cents] | decrease in diastolic blood pressure (DBP) (blood pressure; [5]) [per cents] | decrease in systolic blood pressure (SBP) (blood pressure; [5]) [per cents] | decrease in diastolic blood pressure (DBP) (blood pressure; [6]) [per cents] | decrease in systolic blood pressure (SBP) (blood pressure; [6]) [per cents] | decrease in diastolic blood pressure (DBP) (blood pressure; [7]) [per cents] | decrease in systolic blood pressure (SBP) (blood pressure; [7]) [per cents] | decrease in diastolic blood pressure (DBP) (blood pressure; [8]) [per cents] | decrease in systolic blood pressure (SBP) (blood pressure; [8]) [per cents] | decrease in diastolic blood pressure (DBP) (blood pressure; [9]) [per cents] | decrease in systolic blood pressure (SBP) (blood pressure; [9]) [per cents] | decrease in diastolic blood pressure (DBP) (blood pressure; [10]) [per cents] | decrease in systolic blood pressure (SBP) (blood pressure; [10]) [per cents] | decrease in diastolic blood pressure (DBP) (blood pressure; [11]) [per cents] | other results
Cc1ccccc1C(C#N)(CCCNCC1COc2ccccc2O1)C(C)C (single isomer, unassigned) [VUFB 18007, 5-[(+)-2,3-dihydro-1,4-benzodioxin-2-ylmethylamino]-2-isopropyl-2- -(2-methylphenyl) valeronitrite] | 15 | -66 | -47 | -41 | -33 | -25 | -27 | -19 | -22 | -12 | -17 | – | – | – | – | – | – | – | – | – | –
Cc1ccccc1C(C#N)(CCCNCC1COc2ccccc2O1)C(C)C (single isomer, unassigned) [VUFB 18018, 5-[(-)-2,3-dihydro-1,4-benzodioxin-2-ylmethylamino]-2-isopropyl-2- -(2-methylphenyl) valeronitrile] | 15 | -54 | -40 | -46 | -42 | -29 | -30 | -24 | -22 | -22 | -21 | – | – | – | – | – | – | – | – | – | –
COc1ccc(C(C#N)(CCCNCC2COc3ccccc3O2)C(C)C)cc1OC (single isomer, unassigned) [VUFB 18019, 5-[(+)-2,3-dihydro-1,4-benzodioxin-2-ylmethylamino]-2-(3,4-dimethoxyphenyl)-2-isopropyl valeronitrile] | 16 | – | – | – | – | – | – | – | – | – | – | -54 | -17 | -32 | -32 | -8 | -26 | -14 | -16 | -8 | decrease in systolic blood pressure (SBP) (blood pressure; [11]): -14 per cents
COc1ccc(C(C#N)(CCCNCC2COc3ccccc3O2)C(C)C)cc1OC (single isomer, unassigned) [VUFB 18020, 5-[(-)-2,3-dihydro-1,4-benzodioxin-2-ylmethylamino]-2-(3,4-dimeth-oxyphenyl)-2-isopropyl valeronitrile] | 25 | – | – | – | – | – | – | – | – | – | – | -63 | -46 | -63 | -58 | -45 | -43 | -37 | -35 | -34 | decrease in systolic blood pressure (SBP) (blood pressure; [11]): -40 per cents
O=C1CCc2cc(OCCCCc3nnnn3C3CCCCC3)ccc2N1 [Cilostazol, reference compound] | – | – | – | – | – | – | – | – | – | – | – | – | – | – | – | – | – | – | – | – | minimal effective dose [1]: 25 mg/kg
